This is an account of results in article PMC7064328 (Environmental Health Perspectives, 2020).

Series [1] is described as follows: Maternal indices: dam body weight, gestational weight gain, liver and kidney weight after daily oral gavage E1.5 to E11.5 or E17.5. The class given is in vivo, mouse (CD-1). The settings on record: female, CD-1, mouse, in vivo, oral; dam systemic toxicity: liver alterations, higher GWG, placental lesions; read-out: Lowest dose group evaluated, with significant adverse effects (no NOAEL reportable). As for the experimental part: Naïve female CD-1 mice between 7.5 and 15.5 wk of age from the NIEHS colony were bred in-house on a single night, and copulatory plug–positive females were identified on embryonic day (E) 0.5. Pregnant dams were singly housed in ventilated polypropylene cages and received nesting materials, National Institutes of Health (NIH)-31 diet (Zeigler Bros., Inc.) and reverse osmosis deionized (RODI) water ad libitum. Animals were housed in humidity- and temperature-controlled rooms with 25°C and 45–60% average humidity and standard 12-h light cycles. All animal procedures were approved by the NIEHS Animal Care and Use Committee (ASP #2017-0022).
PFOA and GenX dosing solutions were prepared in RODI water and administered to mice once daily via oral gavage. Daily doses were administered between 0700 and 0800 hours and adjusted to the BW of the mouse based on the previous day’s weight at a volume of 0.01mL/g BW. […] The dose of 1mg/kg BW/d PFOA, used in the mouse developmental toxicity study of [Lau et al. 2006], provided a lowest effect dose that was used to set the reference dose within the U.S. EPA’s drinking water lifetime health advisory level (HAL) of 70 ppt PFOA ([U.S. EPA 2016]).
This experiment was conducted over two blocks (Block 1 and Block 2) to achieve a total of n=11–13 litters per treatment group and sacrifice time point (E11.5 and E17.5). The experimental design of the second block was identical to the first block of the study, and experimental methods were similar but expanded upon to include more rigorous and detailed measurements. Copulatory plug–positive mice (E0.5) were weighed to obtain a baseline BW and placed into one of five groups. Once all mice were assigned to groups, mean BWs were calculated, and a few animals were reassigned so that mean BWs in each group were similar. This was done to avoid confounding effects of baseline BW. Treatment groups were then randomly assigned a color by using a random sequence generator. Experimenters and dosing technicians were blinded to the treatment group to which the color groups corresponded throughout the duration of the study, including at necropsy. […] Pregnant dams were dosed via oral gavage from E1.5 to E11.5 or from E1.5 to E17.5. […] The E11.5 early-gestation time point was selected because it overlaps a critical period of placental development in the mouse where the placenta undergoes vascularization with the uterine wall and chorioallantoic branching of vessels begins ([Watson and Cross 2005]). The E17.5 late-gestation time point was selected so that embryo weight changes that may be related to treatment would be evident.
On the day of necropsy, dams received daily oral gavage between 0700 and 0800 hours and were weighed and then euthanized humanely by swift decapitation, and serum was collected. In Block 1, necropsies were completed from 0800 to 1600 hours, and in Block 2, necropsies were completed from 0800 to 1200 hours. Serum from dams euthanized in Block 1 was snap frozen for internal dosimetry analyses. Serum and urine from Block 2 dams were reserved for clinical chemistry analyses. In both blocks, the uterus was removed, and total implantation sites were counted based on gross observation of an implantation nodule along the uterine horn. Viable embryos, nonviable embryos, and sites of resorption were counted based on gross observation. Embryos were considered viable if they were properly formed, were not pale in color, and were of similar size to neighboring embryos. Embryos that were poorly formed and pale in color (without heartbeat) were considered nonviable. Sites of resorption were defined as a dark red–appearing clot-like nodule apparent on gross observation.
From each uterus, first, viable embryos and their matched placentas were collected in succession within a horn and immediately snap frozen ( n=2–5 per litter ), and subsequent embryos were collected for growth measurements ( n=2–11 per litter ). […]

On the set-up of series [2]: method as in Gannon et al. 2016. The settings on record: rats; ref Gannon et al. 2016; cited from earlier work.
Details of series [3]: method as in Olsen et al. 2007. The settings on record: ref Olsen et al. 2007; cited from earlier work.
For a further series, the system named is mice. More on the design: method as in Koustas et al. 2014. The settings on record: pregnant dams; meta-analysis; ref Koustas et al. 2014; cited from earlier work.
For a further series, the system named is humans. The arrangement: method as in Johnson et al. 2014. Particulars: meta-analysis; ref Johnson et al. 2014; cited from earlier work.

As for `N.O=C(O)C(F)(OC(F)(F)C(F)(F)C(F)(F)F)C(F)(F)F` (centres unmarked) [GenX, ammonium 2,3,3,3-tetrafluoro-2-(heptafluoropropoxy)propanoate], the LOAEL in series [1] is 2 mg/kg/day. Moreover, the Elimination half-life in series [2] is roughly 5 h.

For `O=C(O)C(F)(F)C(F)(F)C(F)(F)C(F)(F)C(F)(F)C(F)(F)C(F)(F)F` [PFOA, Perfluorooctanoic acid], the Human half-life in series [3] is listed as roughly 3.5 y. Moreover, in the series on mice, the “Shift in pup birth weight per 1-mg/kg BW/d increase in PFOA dose” value is -0.023 g. Further, the “Shift in birth weight per 1-ng/mL increase in serum PFOA” value in the series on humans is -18.9 g.
